US20190093163A1, “COMPOSITIONS AND METHODS FOR MAINTAINING SPLICING FIDELITY” (President and Fellows of Harvard College, priority 2015, published 2019)

Tested on: SF1
Experiment: Immunoblots of SF1 in WT MEFs treated with TORC1 inhibitors
Format: cell-based
Conditions: mouse embryonic fibroblasts; rapamycin 20 nM, Torin 250 nM
Description: To control for the SF1 antibody specificity, WT MEF transfected with non-targeting control siRNAs (siCt) or SF1 siRNA for 72 h and grown in 10% FBS, are shown on the right side of the blot. Biological duplicates are shown except for the siRNA treated lanes.
Immunoblotting was performed as in FIG. 14, Panel G. Biological duplicates are shown except for the siRNA treated lanes.
The inverted splicing reporter WBM535 was made by injecting modified minigene reporter plasmids into N2 worms. The plasmids were made by deleting the (+2) frameshift in the EGFP minigene and inserting a (+2) frameshift into the mCherry minigene. Worms were grown and maintained on standard nematode growth media (NGM) seeded with E. coli (OP50-1). E. coli bacteria were cultured overnight in LB at 37° C., after which 100 μl of liquid culture was seeded on plates to grow for 2 days at room temperature. Lifespans—All lifespans were conducted at 20° C. unless otherwise noted in figure legend. Lifespans were performed as described in Burkewitz et al. (93). Graphpad Prism 6 was used to plot survival curves and determine median lifespan. Survival curves were compared and p values calculated using the log-rank (Mantel-Cox) analysis method. […] RNA interference—All RNAi constructs came from the Ahringer RNAi library, except hrp-2 and hrpf-1 RNAi constructs, which originated from the Vidal RNAi library. RNAi experiments were carried out using E. coli HT115 bacteria on standard NGM plates containing 100 μg/ml Carbenicillin. […] NGM plus Carbenicillin plates were seeded 48 hours before use. Respective dsRNA expressing HT115 bacteria were induced by adding 100 μl IPTG (100 mM) one hour before introducing worms to the plate. RNAi was induced for all experiments from egg hatch. Solid plate-based dietary restriction assays—Solid sDR assays were performed as described by Ching et al. (79). Plates were prepared in advance and stored at 4° C.

| SMILES | SF1 gel shifts indicative of altered phosphorylation | total SF1 levels |
| --- | --- | --- |
| CCC(=O)N1CCN(c2ccc(-n3c(=O)ccc4cnc5ccc(-c6cnc7ccccc7c6)cc5c43)cc2C(F)(F)F)CC1 [torin, Torin1] | nor did were SF1 gel shifts indicative of altered phosphorylation seen | no effect |
| CO[C@H]1C[C@@H]2CC[C@@H](C)[C@@](O)(O2)C(=O)C(=O)N2CCCC[C@H]2C(=O)O[C@H]([C@H](C)C[C@@H]2CC[C@@H](O)[C@H](OC)C2)CC(=O)[C@H](C)/C=C(\C)[C@@H](O)[C@@H](OC)C(=O)[C@H](C)C[C@H](C)/C=C/C=C/C=C/1C [rapamycin] |  | no effect |
